Measurements published in patent US10370343B2, “[6,6] Fused bicyclic HDAC8 inhibitors” (FORMA Therapeutics, Inc., priority 2015, dated 2019).

The compounds below were run against T1, Full length human recombinant HDAC8 protein (Homo sapiens, UniProt Q9BY41) (assay: In vitro histone deacetylase assay: enzymatic HDAC8 electrophoretic mobility shift assay). Settings: not given.
T1 construct: Full length human recombinant HDAC8 protein was expressed in baculoviral system; made in house
T1 sequence (Q9BY41 1-377): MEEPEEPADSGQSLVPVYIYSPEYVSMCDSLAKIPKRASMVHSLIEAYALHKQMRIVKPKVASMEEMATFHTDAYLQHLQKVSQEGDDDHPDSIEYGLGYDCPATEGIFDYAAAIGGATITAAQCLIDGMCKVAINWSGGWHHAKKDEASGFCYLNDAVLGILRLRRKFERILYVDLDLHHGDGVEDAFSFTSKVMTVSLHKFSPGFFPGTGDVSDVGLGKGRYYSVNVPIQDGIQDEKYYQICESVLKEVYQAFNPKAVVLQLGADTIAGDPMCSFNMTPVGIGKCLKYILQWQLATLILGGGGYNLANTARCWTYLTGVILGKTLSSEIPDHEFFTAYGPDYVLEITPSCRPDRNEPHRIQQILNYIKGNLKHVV
Format: biochemical
Description: The enzymatic HDAC8 assay was performed using electrophoretic mobility shift assay. Full length human recombinant HDAC8 protein was expressed in baculoviral system and purified by affinity chromatography. The enzymatic reactions were assembled in 384 well plates in a total volume of 25 μL in a reaction buffer composing: 100 mM HEPES, pH7.5, 25 mM KCl, 0.1% bovine serum albumin, 0.01% Triton X-100, 1% DMSO (from compounds) 2 μM of the fluorescently labeled peptide substrate and enzyme. The enzyme was added at a final concentration of 1 nM. The peptide substrate RHKK(Ac)—NH2 was used. The compounds were tested at 12 concentrations spaced by 3× dilution intervals. Negative control samples (0%-inhibition in the absence of inhibitor) and positive control samples (100%-inhibition) were assembled in replicates of four in each assay plate. The reactions were incubated at 25° C. and quenched by the addition of 45 μL of termination buffer (100 mM HEPES, pH 7.5, 0.01% Triton X-100, 0.05% SDS).
The terminated assay plates were analyzed on LabChip® 3000 microfluidic electrophoresis instrument (Perkin Elmer/Caliper Life Sciences). The fluorescence intensity of the electrophoretically separated de-acetylated product and substrate peptide was measured. Activity in each sample was determined as the product to sum ratio (PSR): P/(S+P), where P is the peak height of the product peptide and S is the peak height of the substrate peptide. Percent inhibition (Pinh) is determined using the following equation: Pinh=(PSR0%−PSRinh)/(PSR0%−PSR100%)*100, where PSRinh is the product sum ratio in the presence of inhibitor, PSR0% is the average product sum ration in the absence of inhibitor and PSR100% is the average product sum ratio in 100%-inhibition control samples. The IC50 values of inhibitors were determined by fitting the %-inhibition curves with 4 parameter dose-response model using XLfit 4 software.
`CN(C(=O)CN1C(=O)COc2ccc(C(=O)NO)cc21)C1CC1` [Compound I-51, 4-(2-(cyclopropyl(methyl)amino)-2-oxoethyl)-N-hydroxy-3-oxo-3,4-dihydro-2H-benzo[b][1,4]oxazine-6-carboxamide] gave an IC50 of 100 to 1000 nM.

Same assay, conditions: electrophoretic mobility shift assay; enzyme 1 nM; 2 μM fluorescently labeled peptide substrate RHKK(Ac)-NH2; 25° C.; 12 concentrations; read-out: HDAC8 IC50
With `Cc1ccccc1CN1C(=O)COc2ccc(C(=O)NO)cc21` [Compound I-148, N-hydroxy-4-(2-methylbenzyl)-3-oxo-3,4-dihydro-2H-benzo[b][1,4]oxazine-6-carboxamide] the IC50 was 100 to 1000 nM.
`CS(=O)(=O)c1ccccc1CN1CCOc2ccc(C(=O)NO)cc21` [Compound I-130, N-hydroxy-4-(2-(methylsulfonyl)benzyl)-3,4-dihydro-2H-benzo[b][1,4]oxazine-6-carboxamide] showed an IC50 of 100 to 1000 nM.
Compound `O=C(NO)c1ccc2c(c1)N(C1CCCC1)C(=O)CO2` [Compound I-42, 4-cyclopentyl-N-hydroxy-3-oxo-3,4-dihydro-2H-benzo[b][1,4]oxazine-6-carboxamide] has an IC50 of 100 to 1000 nM.
With `C=C(C)CN1CCOc2ccc(C(=O)NO)cc21` [Compound I-22, N-hydroxy-4-(2-methylallyl)-3,4-dihydro-2H-benzo[b][1,4]oxazine-6-carboxamide] the IC50 was 100 to 1000 nM.
With `O=C(NO)c1ccc2c(c1)N(Cc1ccc(S(=O)(=O)C(F)(F)F)cc1)C(=O)CO2` [Compound I-17, N-hydroxy-3-oxo-4-(4-((trifluoromethyl)sulfonyl)benzyl)-3,4-dihydro-2H-benzo[b][1,4]oxazine-6-carboxamide] the IC50 was < 25 nM.
With `O=C(NO)c1ccc2c(c1)N(CC1CCCCC1)CCO2` [Compound I-133, 4-(cyclohexylmethyl)-N-hydroxy-3,4-dihydro-2H-benzo[b][1,4]oxazine-6-carboxamide] the IC50 was 25 to 100 nM.
Compound `COc1ccc(CN2C(=O)C(C)Oc3cc(C(=O)NO)ccc32)cc1` (stereo not drawn) [Compound I-91, N-hydroxy-4-(4-methoxybenzyl)-2-methyl-3-oxo-3,4-dihydro-2H-benzo[b][1,4]oxazine-7-carboxamide] has an IC50 of 100 to 1000 nM.
`Cc1ccc(CN2C(=O)COc3ccc(C(=O)NO)cc32)cc1C` [Compound I-219, 4-(3,4-dimethylbenzyl)-N-hydroxy-3-oxo-3,4-dihydro-2H-benzo[b][1,4]oxazine-6-carboxamide] was tested, and the IC50 was < 25 nM.
Compound `O=C(NO)c1ccc2c(c1)N(CCc1ccc(Cl)cc1)C(=O)CO2` [Compound I-34, 4-(4-chlorophenethyl)-N-hydroxy-3-oxo-3,4-dihydro-2H-benzo[b][1,4]oxazine-6-carboxamide] has an IC50 of 25 to 100 nM.
In the case of `Cc1ccccc1CN1CCOc2ccc(C(=O)NO)cc21` [Compound I-127, N-hydroxy-4-(2-methylbenzyl)-3,4-dihydro-2H-benzo[b][1,4]oxazine-6-carboxamide], the IC50 is reported as 25 to 100 nM.
`O=C(NO)c1ccc2c(c1)N(Cc1ccccc1C(F)(F)F)C(=O)CO2` [Compound I-65, N-hydroxy-3-oxo-4-(2-(trifluoromethyl)benzyl)-3,4-dihydro-2H-benzo[b][1,4]oxazine-6-carboxamide] showed an IC50 of 100 to 1000 nM.
Compound `CC(c1ccccc1F)N1C(=O)COc2ccc(C(=O)NO)cc21` (stereo not drawn) [Compound I-95, 4-(1-(2-fluorophenyl)ethyl)-N-hydroxy-3-oxo-3,4-dihydro-2H-benzo[b][1,4]oxazine-6-carboxamide] has an IC50 of 25 to 100 nM.
`O=C(NO)c1ccc2c(c1)N(Cc1ccccc1Cl)CCO2` [Compound I-128, 4-(2-chlorobenzyl)-N-hydroxy-3,4-dihydro-2H-benzo[b][1,4]oxazine-6-carboxamide] was tested, and the IC50 was < 25 nM.
Compound `O=C(NO)c1ccc2c(c1)N(Cc1ccc(Cl)cc1)CCO2` [Compound I-118, 4-(4-chlorobenzyl)-N-hydroxy-3,4-dihydro-2H-benzo[b][1,4]oxazine-6-carboxamide] has an IC50 of 25 to 100 nM.
`CCCc1nc(C)sc1CN1C(=O)COc2ccc(C(=O)NO)cc21` [Compound I-283, N-hydroxy-4-((2-methyl-4-propylthiazol-5-yl)methyl)-3-oxo-3,4-dihydro-2H-benzo[b][1,4]oxazine-6-carboxamide] was tested, and the IC50 was 100 to 1000 nM.
Compound `C#CCN1C(=O)COc2ccc(C(=O)NO)cc21` [Compound I-40, N-hydroxy-3-oxo-4-(prop-2-yn-1-yl)-3,4-dihydro-2H-benzo[b][1,4]oxazine-6-carboxamide] has an IC50 of 100 to 1000 nM.
Work on `CCn1c(CN2C(=O)COc3ccc(C(=O)NO)cc32)nc2ccc(Cl)cc21` [Compound I-269, 4-((6-chloro-1-ethyl-1H-benzo[d]imidazol-2-yl)methyl)-N-hydroxy-3-oxo-3,4-dihydro-2H-benzo[b][1,4]oxazine-6-carboxamide] yielded an IC50 of 100 to 1000 nM.
`O=C(NO)c1ccc2c(c1)N(Cc1cccc(OC(F)(F)F)c1)C(=O)CO2` [Compound I-146, N-hydroxy-3-oxo-4-(3-(trifluoromethoxy)benzyl)-3,4-dihydro-2H-benzo[b][1,4]oxazine-6-carboxamide] was tested, and the IC50 was < 25 nM.
`CN1CC(C(=O)NC2CCOCC2)Oc2cc(C(=O)NO)ccc21` (stereo not drawn) [Compound I-7, N^7-hydroxy-4-methyl-N^2-(tetrahydro-2H-pyran-4-yl)-3,4-dihydro-2H-benzo[b][1,4]oxazine-2,7-dicarboxamide] gave an IC50 of 100 to 1000 nM.
Compound `O=C(NO)c1ccc2c(c1)N(Cc1ccccc1C(F)(F)F)CCO2` [Compound I-129, N-hydroxy-4-(2-(trifluoromethyl)benzyl)-3,4-dihydro-2H-benzo[b][1,4]oxazine-6-carboxamide] has an IC50 of 100 to 1000 nM.
Work on `O=C(NO)c1ccc2c(c1)N(CCN1CCCS1(=O)=O)C(=O)CO2` [Compound I-52, 4-(2-(1,1-dioxidoisothiazolidin-2-yl)ethyl)-N-hydroxy-3-oxo-3,4-dihydro-2H-benzo[b][1,4]oxazine-6-carboxamide] yielded an IC50 of 100 to 1000 nM.
`CC1CN(Cc2ccc(S(C)(=O)=O)cc2)c2cc(C(=O)NO)ccc2O1` (stereo not drawn) [Compound I-85, N-hydroxy-2-methyl-4-(4-(methylsulfonyl)benzyl)-3,4-dihydro-2H-benzo[b][1,4]oxazine-6-carboxamide] showed an IC50 of 100 to 1000 nM.
Work on `CC1Oc2cc(C(=O)NO)ccc2N(Cc2ccc(S(C)(=O)=O)cc2)C1=O` (stereo not drawn) [Compound I-92, N-hydroxy-2-methyl-4-(4-(methylsulfonyl)benzyl)-3-oxo-3,4-dihydro-2H-benzo[b][1,4]oxazine-7-carboxamide] yielded an IC50 of 100 to 1000 nM.
For `O=C(NO)c1ccc2c(c1)N(C(=O)C1CCCCC1)CCO2` [Compound I-114, 4-(cyclohexanecarbonyl)-N-hydroxy-3,4-dihydro-2H-benzo[b][1,4]oxazine-6-carboxamide], the IC50 was 100 to 1000 nM.
For `O=C(NO)c1ccc2c(c1)N(Cc1nc3ccccc3n1CC1CC1)C(=O)CO2` [Compound I-279, 4-((1-(cyclopropylmethyl)-1H-benzo[d]imidazol-2-yl)methyl)-N-hydroxy-3-oxo-3,4-dihydro-2H-benzo[b][1,4]oxazine-6-carboxamide], the IC50 was 100 to 1000 nM.
`O=C(NO)c1ccc2c(c1)N(Cc1cccc(C(F)(F)F)c1)CCO2` [Compound I-124, N-hydroxy-4-(3-(trifluoromethyl)benzyl)-3,4-dihydro-2H-benzo[b][1,4]oxazine-6-carboxamide] was tested, and the IC50 was < 25 nM.
`CCCn1c(CN2C(=O)COc3ccc(C(=O)NO)cc32)nc2ccccc21` [Compound I-282, N-hydroxy-3-oxo-4-((1-propyl-1H-benzo[d]imidazol-2-yl)methyl)-3,4-dihydro-2H-benzo[b][1,4]oxazine-6-carboxamide] showed an IC50 of 100 to 1000 nM.
Work on `O=C(NO)c1ccc2c(c1)N(Cc1c(Cl)cccc1Cl)CCO2` [Compound I-23, 4-(2,6-dichlorobenzyl)-N-hydroxy-3,4-dihydro-2H-benzo[b][1,4]oxazine-6-carboxamide] yielded an IC50 of 100 to 1000 nM.
`O=C(NO)c1ccc2c(c1)N(Cc1cccc(Cl)c1)CCO2` [Compound I-123, 4-(3-chlorobenzyl)-N-hydroxy-3,4-dihydro-2H-benzo[b][1,4]oxazine-6-carboxamide] was tested, and the IC50 was 25 to 100 nM.
`O=C(NO)c1ccc2c(c1)N(Cc1cccc(-c3ccccc3)c1)C(=O)CO2` [Compound I-75, 4-([1,1′-biphenyl]-3-ylmethyl)-N-hydroxy-3-oxo-3,4-dihydro-2H-benzo[b][1,4]oxazine-6-carboxamide] was tested, and the IC50 was < 25 nM.
`COc1ccc(CN2CC(C)Oc3ccc(C(=O)NO)cc32)cc1` (stereo not drawn) [Compound I-84, N-hydroxy-4-(4-methoxybenzyl)-2-methyl-3,4-dihydro-2H-benzo[b][1,4]oxazine-6-carboxamide] gave an IC50 of 25 to 100 nM.
Compound `COc1ccc(CN2C(=O)[C@@H](C)Oc3ccc(C(=O)NO)cc32)cc1` (single isomer, unassigned) [Compound I-162] has an IC50 of 25 to 100 nM.
